# Experimental data: article PMC6397244, “Peptide Assembly on the Membrane Determines the HIV-1 Inhibitory Activity of Dual-Targeting Fusion Inhibitor Peptides” (Scientific Reports, 2019)
# Ends that are not written are not given here.
# What was measured:
# [1] = test system: Q461 (HIV pseudotype, Env pQ461.e2); details: Q461 (R5, subtype A); TZM-bl, peptide 1 h before and during infection, luciferase read-out 48 h after infection; duplicates
# From the text: (§1) The anti-HIV activities of DT-peptides and E1 were comparatively tested against a set of viral pseudotypes carrying HIV envelopes from HIV subtype A, B, C and A/E (Table 1) in the TZM-bl reporter cell line.
# (§2) The preparation of the HIV-1 Env pseudotyped virus stocks in a GCLP- (Good Clinical Laboratory Practice) compliant manner occurred as described previously. This includes the pseudoviruses listed in Table 2 with the Env sequences HXB2, AC10.0.29, Q461.e2, Q23.17, CAP210.2.00.E8 and CM235.c11 as well as the Env deficient backbone plasmid pSG3ΔEnv. Within this study the titration assay to determine the virus dilution at a relative luminescence unit (RLU) of 150,000 was performed according to the method described before[34]–[36] and the luminescence was measured using the Infinite F200 microplate reader.
# (§3) Peptides were tested for their antiviral activities against a panel of HIV pseudotypes carrying different HIV envelope proteins (Table 2) in the TZM-bl indicator cell line. Briefly, 10-fold serial dilutions of the compounds (0.001–10 µM) were incubated in duplicates with the cells in 96-well plates. 1 h after incubation, cell culture medium was replaced and cells were infected with the different pseudotypes together with fresh compounds. […] 48 h after infection, cells were washed and luciferase was quantified using the Britelite Plus Luciferase Assay System (PerkinElmer). Luciferase values were normalized to DMSO control. Cell viability was estimated in parallel in non-infected TZM-bl cells with the Cell Titer Glo ATPase kit (Promega). CC50 and EC50 values ± SEM were calculated with GraphPad Prism, using the built-in function log (inhibitor) vs. normalized response.
# [2] = test system: AC10 (HIV pseudotype, Env pAC10.0); details: AC10 (R5, subtype B); TZM-bl, peptide 1 h before and during infection, luciferase read-out 48 h after infection; duplicates
# From the text: as §1, §2, §3
# [3] = test system: HXB2 (HIV pseudotype, Env pHXB2); details: HXB2 (X4, subtype B); TZM-bl, peptide 1 h before and during infection, luciferase read-out 48 h after infection; duplicates
# From the text: as §1, §2, §3
# [4] = test system: CM235 (HIV pseudotype, Env pCM235/GS); details: CM235 (R5, subtype A/E); TZM-bl, peptide 1 h before and during infection, luciferase read-out 48 h after infection; duplicates
# From the text: as §1, §2, §3
# [5] = test system: CAP210 (HIV pseudotype, Env pCAP210.2); details: CAP210 (R5, subtype C); TZM-bl, peptide 1 h before and during infection, luciferase read-out 48 h after infection; duplicates
# From the text: as §1, §2, §3
# [6] = test system: Q23 (HIV pseudotype, Env pQ23.17); details: Q23 (R5, subtype A); TZM-bl, peptide 1 h before and during infection, luciferase read-out 48 h after infection; duplicates
# From the text: as §1, §2, §3
# [7] = 1D 1H NMR in DPC micelles; format: physicochemical; details: NMR sample
# Description: Nuclear magnetic resonance (NMR) spectra were recorded at 300 K on a Bruker Avance III console (Bruker Biospin, Germany) combined with a […] Oxford Instruments magnet (^1H 500 MHz), equipped with a 5 mm inverse cryogenically cooled triple-resonance TCI (^1H, ^13C, ^15N, and ^2H lock) cryoprobe with a z-axis magnetic field-gradient capability. For proton spectra acquisition, peptide samples were prepared by dissolving first lyophilized peptide in a small amount of DMSO-d6 and next, dissolution in detergent solution containing perdeuterated DPC-d38 (final molar ratio ~ 1:100, peptide/DPC 0.5:50 mM). […] The diffusion coefficient, D, was determined by fitting diffusion weighted intensities of selected peaks or integrals over a chosen range to the following equation1 I=I0exp{−γ^2g^2δ^2(Δ−δ/3)D}, where γ is the gyromagnetic ratio of proton and g, δ and Δ are the amplitude, duration and separation of the single pair of gradient pulses, respectively. […] The reason for DPC diffusion coefficients being higher than peptides values is likely due to a surplus of free monomeric DPC molecules (below cmc), so the diffusion coefficient measured for DPC has a relevant contribution of […], while the observed peptide resonances (and their diffusion coefficient) mainly correspond to DPC-bound peptide.
# [8] = Trp quenching by brominated phospholipids; format: physicochemical; details: 2 µM peptide, 200 µM Br-PC vs DOPC vesicles, 5 min, 25 °C, excitation 290 nm; three repeated assays
# Description: Quenching of Trp by brominated phospholipid was performed using liposomes composed of 1,2-di-(9-10-dibromo) stearoyl-sn-glycero-3-phosphocoline (Br-PC) (Avanti Polar Lipids). As previously reported, this lipid has similar properties as unsaturated phosphatidylcholine chains due to the bulkiness of bromine residues. For this reason, liposomes of 1,2-dioleoyl-sn-glycero-3-phosphocholine (DOPC) were used for comparing the Trp fluorescence of peptides with brominated liposomes. Liposomes were prepared following the same procedure as described above. Comparatively, a concentration of 2 µM of peptides was added to 200 µM of lipid vesicles either BrPC or DOPC. After 5 min of incubation at 25 °C, fluorescence spectra were recorded with an excitation wavelength of 290 nm and emission from 300 to 450 nm. The fractional quenching was calculated as reported in ref. [33] by (F0 − F)/F0, where F0 is the fluorescence intensity at 340 nm for peptides added to DOPC liposomes and F for peptides added to Br-PC liposomes.
# [9] = membrane affinity / partition, intrinsic Trp fluorescence on titration with POPC liposomes; format: physicochemical; details: 5 µM peptide, POPC LUVs 0.05–0.6 mM, 20 °C; for apparent mole fraction partition coefficient KX: intrinsic Trp fluorescence (ex 280 nm), PBS 0.01 M pH 7.4 (method) / HEPES, triplicate
# Description: Unilamellar vesicles (LUV) composed of the negatively charged phospholipid 1-palmitoyl-2-oleoyl-sn-glycero-3-phospho-(1′-rac-glycerol) (POPG) or zwitteronic phospholipid palmitoyl-2-oleoyl-sn-glycero-3-phosphocholine (POPC) (both from Avanti Polar-Lipids) were prepared as model membranes. Lipids (10 mM) were dissolved in chloroform/methanol (2/1, v/v) solution. The solvent was evaporated under reduced pressure. A buffer solution of PBS 0.01 M pH 7.4 was added to the previously obtained lipid film to prompt the spontaneous formation of multilamellar vesicles that were subjected to a process of 10 freeze and thaw cycles. The liposomes were then subjected to an extrusion process through 100-nm pore-sized polycarbonate filters in a high-pressure extruder.
# To carry out membrane partition studies with DT-peptides, emission fluorescence spectra were recorded for DT-peptides in PBS (0.01 M, pH 7.4) at 20 °C using an excitation wavelength of 280 nm. Changes in the tryptophan (Trp) fluorescence spectra were monitored after incubation of 5 µM of each peptide with increasing concentrations of liposomes. The suspensions were continuously stirred and were left to equilibrate for 10 min before recording the spectra. Fluorescence intensities were corrected by subtraction of the vesicle blank. A lipid titration of N-acetyltryptophanamide (NATA) was carried out at the same time. As described in ref. [31], the apparent mole fraction partition coefficients were determined by fitting the binding curves to the equation: F=fboundFmax+(1−fbound)F0 where F is the relative fluorescence intensity, F0 is the fluorescence intensity in the absence of lipid. fbound=KxL/(W+KxL) where Kx is the mole fraction partition coefficient, L is the lipid concentration, and W is the molar concentration of water (55.3 M at 25 °C).
# [10] = test system: HIV-1 FP; details: donor:acceptor 1:1 ratio; cited from earlier work
# From the text: The energy transfer efficiency between FP and E1 peptide at a donor:acceptor 1:1 ratio, was around 30% while the energy transfer efficiency between FP and DT-P2 was only 5%.
Substance,EC50 [1] [µM],EC50 [2] [µM],EC50 [3] [µM],EC50 [4] [µM],EC50 [5] [µM],EC50 [6] [µM],effect of higher DMSO-d6 (from 3 to 13%) to increase solubility [7],Trp quenching by brominated lipid vesicles / accessibility for the lipids (in words) [8],Trp fluorescence upon titration with POPC liposomes / membrane partition (in words) ([9]; excitation 280 nm),apparent mole fraction partition coefficient KX [9],energy transfer efficiency between FP and peptide [10]
LCDCPNGPWVWVPAFCQAVGGGGSWILEYLWKVPFDFWRGVI-NH2 (cysteines drawn unpaired) [DT-P1],24.5,20.2,7.63,18.9,12.9,21.6,no improvement was observed,–,–,–,–
WILEYLWKVPFDFWRGVI-NH2 (C-terminus assumed) [E1],–,–,–,–,–,–,–,highly quenched demonstrating greater peptide accessibility to the hydrophobic inner part of the lipid vesicles,partitioned stronger into lipid vesicles,8.2 × 10^5,around 30%
WILEYLWKVPFDFWRGVIGGGSLCDCPNGPWVWVPAFCQAVG-NH2 (cysteines drawn unpaired) [DT-P2],24.5,14,10.8,17.9,9.4,15.9,–,–,–,2.4 × 10^5,–
